Measured values taken from patent US20260272868A1 (priority 2022, published 2026).
“And” between values parts separate entries of the source, which are not always exact repeats. Identical values can stand only once. Like-named read-outs stand apart in the source and are kept apart here.

What was measured:
[1] = target: T1, 5-HT2A receptor (Homo sapiens, UniProt P28223); conditions: cited from earlier work
T1 construct: (~mg per ~70 kg human, route); host or cells: human subjects (in vivo doses)

[2] = tested on: head twitch response (HTR); type: in vivo, mice
Experimental: Male C57BL/6 mice (~7-9 weeks old) were used in these studies. Mice were housed 2 per cage under standard temperature- and humidity-controlled laboratory conditions with a 12-hour light/dark cycle. Mice had free access to food and water.
Both compounds were dissolved in saline vehicle at a dose volume of 10 mL/kg. Doses were corrected for salt form so that the dose administered represented free base.
Mice were randomly assigned to 1 of 6 treatment groups consisting of 2 subcutaneous injections (see Table 1), which were administered according to the schedule in FIG. 1. […] Behavior was videotaped by a camera (GoPro Hero 9) mounted above the testing chambers. Recorded video was uploaded for analysis of head twitch behavior. Number of head twitch responses (HTRs) was recorded for each animal for each 2-min bin. For each treatment group, the mean number of HTRs in each 2- or 10-min bin, and across the whole 30-min recording period, were analyzed.

[3] = in vivo; conditions: male, C57BL/6, mouse
Experimental: Male C57BL/6 mice, aged 8-12 weeks, were used in these studies. Mice were housed 4 per cage under standard temperature- and humidity-controlled laboratory conditions with a 12-hour light/dark cycle. Mice had free access to food and water but were fasted from 4 h prior to and until 2 h after dosing. Animals were randomly assigned to treatment groups.
Doses were corrected for salt form so that the dose administered represented free base.
Immediately after blood collection, plasma was harvested by centrifugation at 4,000 rpm for 10 min at 4° C. and samples were stored at −70±10° C. until bioanalysis. Following blood collection, animals were immediately sacrificed, the abdominal vena-cava was cut open, the whole body was perfused from the heart using 10 mL of normal saline, and brain samples were collected from all animals. After isolation, brain samples were rinsed three times in ice-cold normal saline (for 5-10 seconds/rinse using ~5-10 mL normal saline in a disposable petri dish for each rinse) and dried on blotting paper. Brain samples were homogenized using ice-cold phosphate-buffered saline (pH 7.4). Total homogenate volume was three times the tissue weight. All homogenates were stored at −70±10° C. until bioanalysis. For bioanalysis, 20 μL aliquots of plasma/brain study samples or spiked plasma/brain calibration standards were added to individual pre-labeled micro-centrifuge tubes followed by 200 μL of an internal standard solution (cetirizine, 50 ng/mL in acetonitrile) except for blanks, where 200 μL of acetonitrile was added. Samples were vortexed for 5 minutes and then centrifuged for 10 minutes at 4,000 rpm at 4° C. Following centrifugation, 200 μL of each clear supernatant was transferred to a 96-well plate and analyzed with a fit-for-purpose LC-MS/MS method, with authentic samples of each analyte used for calibration and identification.

[4] = Plasma protein binding, rapid equilibrium dialysis, mouse plasma; type: in vitro ADME
Experimental: (§1) A 1 mM stock solution of trazadone was prepared in DMSO and diluted 200-fold in mouse or human plasma to yield a final concentration of 5 μM. The final DMSO concentration was 0.5%. Rapid equilibrium dialysis (RED) was performed with a RED device containing a dialysis membrane with a molecular weight cut-off of 8,000 Daltons. Each dialysis insert contains two chambers. The red chamber is for plasma while the white chamber is for buffer.
(§2) For each dialysis insert, aliquots (200 μL) of positive control or test compound at 5 μM (n=2) were separately added to the plasma chamber and 350 μL of phosphate buffered saline (pH 7.4) was added to the buffer chamber. After sealing the RED device with an adhesive film, dialysis was performed in an incubator at 37° C. with shaking at 300 RPM for 4 hours. To assess recovery and stability, 50 μL aliquots of positive control and test compound were added to 96-deep well plates and quenched with 400 μL acetonitrile (for 0 min), while comparator aliquots were incubated at 37° C. for 4 hours along with the RED device.
(§3) Following dialysis, an aliquot of 50 μL was removed from each well (both plasma and buffer side) and diluted with an equal volume of the opposite matrix (dialyzed with the other matrix) to nullify the matrix effect. Similarly, 50 μL of buffer was added to recovery and stability samples. An aliquot of 100 μL was submitted for LC-MS/MS analysis. […]

[5] = Plasma protein binding, rapid equilibrium dialysis, human plasma; type: in vitro ADME
Experimental: as §1, §2, §3

[6] = Human plasma pharmacokinetic parameters of trazodone collected from the literature; type: in vivo; conditions: mean of literature values
[7] = cited from earlier work

T1 sequence (P28223 whole entry): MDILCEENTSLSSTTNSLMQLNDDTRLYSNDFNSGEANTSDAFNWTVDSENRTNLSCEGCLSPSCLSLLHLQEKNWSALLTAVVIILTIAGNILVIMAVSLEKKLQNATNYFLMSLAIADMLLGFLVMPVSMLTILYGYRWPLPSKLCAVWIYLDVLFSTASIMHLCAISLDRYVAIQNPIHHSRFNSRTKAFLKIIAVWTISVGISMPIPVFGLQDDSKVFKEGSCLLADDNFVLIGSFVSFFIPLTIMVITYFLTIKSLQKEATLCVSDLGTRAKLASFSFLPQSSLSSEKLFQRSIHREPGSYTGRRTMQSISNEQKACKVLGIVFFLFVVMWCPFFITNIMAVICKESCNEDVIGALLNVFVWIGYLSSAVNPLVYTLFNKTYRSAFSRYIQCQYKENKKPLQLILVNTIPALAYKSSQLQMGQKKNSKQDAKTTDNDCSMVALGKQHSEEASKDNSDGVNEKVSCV

## COc1cc(CC(C)N)c(OC)cc1C (stereo not shown) [DOM, 2,5-dimethoxy-4-methylamphetamine]
[1]; oral
  Typical Fully Psychedelic Dose Range: 3-5, oral ~mg per ~70 kg human

## CN(C)CCc1c[nH]c2ccccc12 [DMT, N,N-dimethyltryptamine]
[1]; smoked
  Typical Fully Psychedelic Dose Range: 20-40, smoked ~mg per ~70 kg human

## COc1cc(CCN)cc(OC)c1OC [mescaline]
[1]; oral
  Typical Fully Psychedelic Dose Range: 200-400, oral ~mg per ~70 kg human

## COc1ccc2[nH]cc(CCN(C)C)c2c1 [5-MeO-DMT, 5-methoxy-N,N-dimethyltryptamine]
[1]; smoked
  Typical Fully Psychedelic Dose Range: 5-10, smoked ~mg per ~70 kg human

## O=c1n(CCCN2CCN(c3cccc(Cl)c3)CC2)nc2ccccn12 [trazodone]
[2]; 0-10, 10-20, 20-30 min post trazodone, even at the lowest dose
  HTR reversal quantified in 10-minute bins: rapid and robust HTR reversal effect
[2]; all trazodone doses tested, SC, 45 min after DOPR 3.2 mg/kg SC
  onset of reversal of DOPR HTR: ≤ 2 min
[2]; all trazodone doses tested, limited by recording period
  persistence of HTR reversal effect: ≥ 30 min
[2]; lowest dose of trazodone (1 mg/kg SC)
  reversal of DOPR-induced HTR in the 20-30-minute time bin: full reversal
[2]; mice, total plasma concentration 25 min after 1 mg/kg SC trazodone
  minimum efficacious concentration (MEC) in plasma for reversal: ≤ 369 ng/mL
[2]; trazodone 1, 1.8, 3.2 or 10 mg/kg SC 45 min after DOPR 3.2 mg/kg SC, 30-min recording, all doses incl. lowest
  reversal of HTR induced by DOPR: fully reversed
[3]; 1 mg/kg
  concentration at 5 min: 800 ng/mL and 700 ng/g
  concentration at 15 min: 504 ng/mL and 584 ng/g
  concentration at 25 min: 369 ng/mL and 255 ng/g
[3]; 3.2 mg/kg
  concentration at 5 min: 1480 ng/mL and 1750 ng/g
  concentration at 15 min: 1350 ng/mL and 1600 ng/g
  concentration at 25 min: 1020 ng/mL and 674 ng/g
[3]; 10 mg/kg
  concentration at 5 min: 3490 ng/mL and 7930 ng/g
  concentration at 15 min: 2870 ng/mL and 5100 ng/g
  concentration at 25 min: 1910 ng/mL and 3580 ng/g
[4]; 5 μM, 4 hours, 37° C.
  bound fraction in plasma: 94.4%
[4]; pH 7.4, 37° C.
  fraction unbound at 4 h, 5 μM: 0.056
[5]; 5 μM, 4 hours, 37° C.
  bound fraction in plasma: 90.2%
[5]; pH 7.4, 37° C.
  fraction unbound at 4 h, 5 μM: 0.098
[6]; PO
  Cmax (ng/mL per mg dosed): 17.2 ng/mL per mg dosed
[6]; human, plasma, IV
  half-life: 6.3 h
[6]; human, plasma, PO
  Tmax: 1.5 h
  half-life: 9.1 h
[7]; 25 mg IV, Greenblatt, 1987
  T1/2: 5.3 h
[7]; 50 mg PC, Greenblatt, 1987
  Cmax (ng/mL per mg dosed): 18.8 ng/mL per mg dosed
  T1/2: 5.2 h
  Tmax: 1.02 h
[7]; 50 mg PO, Gammans, 1984
  Cmax (ng/mL per mg dosed): 17.16 ng/mL per mg dosed
  T1/2: 13.3 h
  Tmax: 0.9 h
[7]; 90 mg IV, Nilsen, 1992
  T1/2: 7.3 h
[7]; 100 mg PO, Bayer, 1983
  Cmax (ng/mL per mg dosed): 16 ng/mL per mg dosed
  T1/2: 6.0 h
  Tmax: 2 h
[7]; 100 mg PO, Kale, 2015
  Cmax (ng/mL per mg dosed): 15.47 ng/mL per mg dosed
  T1/2: 13.1 h
  Tmax: 2.25 h
[7]; 100 mg PO, Nilsen, 1992
  Cmax (ng/mL per mg dosed): 18.8 ng/mL per mg dosed
  T1/2: 7.8 h
  Tmax: 1.34 h
[7]; human
  half-life: 6 to 12 h

## CCN(CC)C(=O)[C@@H]1C=C2c3cccc4[nH]cc(c34)C[C@H]2N(C)C1 [LSD, lysergic acid diethylamide]
[1]; oral
  Typical Fully Psychedelic Dose Range: 0.1-0.2, oral ~mg per ~70 kg human

## CN(C)CCc1c[nH]c2cccc(O)c12 [psilocin]
[1]; oral
  Typical Fully Psychedelic Dose Range: 15-25, oral ~mg per ~70 kg human

## COc1cc(CCN)c(OC)cc1Br [2C-B]
[1]; oral
  Typical Fully Psychedelic Dose Range: 15-25, oral ~mg per ~70 kg human

## CCc1cc(OC)c(CCN)cc1OC [2C-E, 2-(4-Ethyl-2,5-dimethoxyphenyl)ethanamine]
[1]; oral
  Typical Fully Psychedelic Dose Range: 10-20, oral ~mg per ~70 kg human
